# Laboratory results from patent US20260234165A1, “MACROCYCLIC COMPOUNDS, PREPARATION METHOD THEREFOR, AND USE THEREOF” (GENFLEET THERAPEUTICS (SHANGHAI) INC., priority 2004, published 2026).
# Counter-ions that a name gives are not always drawn. Like-named read-outs stand apart in the source and are kept apart here.
# Tests used:
# Assay type in all cases: cell-based, human
# [1] = system: p-ERK in NCI-H441 cells (KRAS G12V mutation); experiment: Cell p-ERK assay (HTRF) in NCI-H441 cells; conditions: NCI-H441 cells, 3 h compound incubation, HTRF p-ERK T202/Y204, read-out: H441 p-ERK IC50
# In short: (§1)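 Phospho-ERK inhibition measured by HTRF after a 3 h compound exposure (0.1% DMSO) in overnight-seeded cells; IC50 derived from dose-response fitting.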
# NCI-H441 cells = experiment: 3D cell proliferation assay (CellTiter Glo-3D), NCI-H441; conditions: medium with 2% FBS, read-out: H441 AP IC50
# In short: (§2)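 NCI-H441 ([…] lung) and AsPC-1 (KRAS G12D pancreatic) cells, 800 per well, were seeded in RPMI-1640 with 2% FBS and dosed next day with 3.16-fold compound dilutions (0.1% DMSO). After 5 days at 37 °C, CellTiter-Glo 3D luminescence gave inhibition versus DMSO and blank; IC50 from four-parameter fit.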
# [2] = system: p-ERK in AsPC-1 cells (KRAS G12D mutation); experiment: Cell p-ERK assay (HTRF) in AsPC-1 cells; conditions: AsPC-1 cells, 3 h compound incubation, HTRF p-ERK T202/Y204, read-out: AsPC-1 p-ERK IC50
# In short: as §1
# [3] = system: AsPC-1 cells (KRAS G12D mutation); experiment: 3D cell proliferation assay (CellTiter Glo-3D), AsPC-1; conditions: medium with 2% FBS, read-out: AsPC-1 AP IC50
# In short: as §2
# [4] = Homo sapiens, NCI-H441, 3D cell proliferation (CellTiter Glo-3D)
# [5] = Homo sapiens, ASPC1, 3D cell proliferation (CellTiter Glo-3D)
# [6] = 3D cell proliferation (CellTiter Glo-3D)
Compound,"IC50 ([1]; Homo sapiens, NCI-H441, 3 h)",IC50 (NCI-H441 cells; [4]),"IC50 ([2]; Homo sapiens, ASPC1, 3 h)","IC50 [3, 5]",IC50 [1],IC50 (NCI-H441 cells; [6]),IC50 [2],"IC50 [3, 6]"
"CCn1c(-c2cc(C#CCN3CCCOCC3)cnc2[C@H](C)OC)c2c3cc(ccc31)-c1csc(n1)C[C@H](NC(=O)C(C)(C)CC)C(=O)N1CCC[C@H](N1)C(=O)OCC(C)(C)C2 (atropisomer, axis not shown; (Ra)) [Compound Z812, N-((6^3S,4S,Z)—(Ra)-1^2-(5-(3-(1,4-oxazepan-4-yl)prop-1-yn-1-yl)-2-((S)-1-methoxyethyl)pyridin-3-yl)-1^1-ethyl-10,10-dimethyl-5,7-dioxo-6^1,6^2,6^3,6^4,6^5,6^6-hexahydro-1^1H-8-oxa-2(4.2)-thiazola-1(5,3)-indola-6(1,3)-pyridazinacycloundecaphane-4-yl)-2.2-dimethylbutanamide]",1.06 nM,1.64 nM,1.69 nM,3.52 nM,,,,
"CCn1c(-c2cc(C#CCN3CCOC[C@@H]3C)cnc2[C@H](C)OC)c2c3cc(ccc31)-c1csc(n1)C[C@H](NC(=O)[C@H]1[C@H](C)[C@@H]1C)C(=O)N1CCCC(N1)C(=O)OCC(C)(C)C2 (atropisomer, axis not shown; (Ra)) [Compound Z814]",,,,,0.14 nM,0.18 nM,0.15 nM,0.14 nM
"CCn1c(-c2cc(C#CC3(N4CCC4)CC3)cnc2[C@H](C)OC)c2c3cc(ccc31)-c1csc(n1)C[C@H](NC(=O)[C@H]1[C@H](C)[C@@H]1C)C(=O)N1CCC[C@H](N1)C(=O)OCC(C)(C)C2 (atropisomer, axis not shown; (Ra)) [Compound Z836-1, (1r,2R,3S)—N-((4S,Z)—(Ra)-1^2-(5-((1-(azetidin-1-yl)cyclopropyl)ethynyl)-2-((S)-1-methoxyethyl)pyridin-3-yl)-1^1-ethyl-10,10-dimethyl-5,7-dioxo-6^1,6^2,6^3,6^4,6^5,6^6-hexahydro-1^1H-8-oxa-2(4,2)-thiazola-1(5,3)-indola-6(1,3)-pyridazinacycloundecaphane-4-yl)-2,3-dimethylcyclopropane-1-carboxamide]",,,,,0.83 nM,0.64 nM,0.5 nM,1.05 nM
"CCn1c(-c2cc(C#CCN3CCS(=N)(=O)CC3)cnc2[C@H](C)OC)c2c3cc(ccc31)-c1csc(n1)C[C@H](NC(=O)[C@H]1[C@H](C)[C@@H]1C)C(=O)N1CCC[C@H](N1)C(=O)OCC(C)(C)C2 (atropisomer, axis not shown; (Ra)) [Compound Z850, (1r,2R,3S)—N-((6^3S,4S,Z)-1^1-ethyl-(Ra)-1^2-(5-(3-(1-imino-1-oxo-11^6-thiomorpholino)prop-1-yn-1-yl)-2-((S)-1-methoxyethyl)pyridin-3-yl)-10,10-dimethyl-5,7-dioxo-6^1,6^2,6^3,6^4,6^5,6^6-hexahydro-1^1-8-oxa-2(4,2)-thiazola-1(5,3)-indola-0(1,3)-pyridazinacycloundecaphane-4-yl)-2.3-dimethylcyclopropane-1-carboxamide]",0.25 nM,0.13 nM,0.18 nM,0.08 nM,,,,
"CCn1c(-c2cc(N3CCC(N4CCS(=O)(=O)CC4)CC3)cnc2[C@H](C)OC)c2c3cc(ccc31)-c1csc(n1)C[C@H](NC(=O)[C@H]1[C@H](C)[C@@H]1C)C(=O)N1CCC[C@H](N1)C(=O)OCC(C)(C)C2 (atropisomer, axis not shown; (Ra)) [Compound Z855, (1r,2R,3S)—N-((6S,4S,Z)—(Ra)-1^2-(5-(4-(1,1-dioxidothiomorpholino)piperidin-1-yl)-2-((S)-1-methoxyethyl)pyridin-3-yl)-1^1-ethyl-10,10-dimethyl-5,7-dioxo-6^1,6^2,6^3,6^4,6^5,6^6-hexahydro-1^1H-8-oxa-2(4,2)-thiazola-1(5,3)-indola-6(1,3)-pyridazinacycloundecaphane-4-yl)-2,3-dimethylcyclopropane-1-carboxamide]",0.17 nM,0.16 nM,0.29 nM,0.22 nM,,,,
"CCn1c(-c2cc(C#CCN3CCCOCC3)c[n+]([O-])c2[C@H](C)OC)c2c3cc(ccc31)-c1csc(n1)C[C@H](NC(=O)[C@H]1[C@H](C)[C@@H]1C)C(=O)N1CCC[C@H](N1)C(=O)OCC(C)(C)C2 (atropisomer, axis not shown; (Ra)) [Compound Z914-1, 5-(3-(1,4-oxazepan-4-yl)prop-1-yn-1-yl)-(Ra)-3-((6^3S,4S,Z)-4-((1r,2R,3S)-2,3-dimethylcyclopropane-1-carboxamido)-1^1-ethyl-10,10-dimethyl-5,7-dioxo-6^1,6^2,6^3,6^4,6^5,6^6-hexahydro-1^1H-8-oxa-2(4,2)-thiazola-1(5,3)-indola-6(1,3)-pyridazinacycloundecaphane-12-yl)-2-((S)-1-methoxyethyl)pyridine-1-oxide]",,,,,0.27 nM,0.11 nM,0.19 nM,0.24 nM
"CCn1c(-c2cc(C#CCN3CCCOCC3)cnc2[C@H](C)OC)c2c3cc(ccc31)-c1csc(n1)C[C@H](NP(=O)(CC)CC)C(=O)N1CCC[C@H](N1)C(=O)OCC(C)(C)C2 (atropisomer, axis not shown; (Ra)) [Compound Z920, N-((6^3S,4S,Z)—(Ra)-1^2-(5-(3-(1,4-oxazepan-4-yl)prop-1-yn-1-yl)-2-((S)-1-methoxyethyl)pyridin-3-yl)-1^1-ethyl-10,10-dimethyl-5,7-dioxo-6^1,6^2,6^3,6^4,6^5,6^6-hexahydro-1^1H-8-oxa-2(4,2)-thiazola-1(5,3)-indola-6(1,3)-pyridazinacycloundecaphane-4-yl)-P,P-diethylphosphoramidite formate]",,,,,9.41 nM,15 nM,33.8 nM,38.3 nM
"CCn1c(-c2cc(C#CCN3CCCOCC3)cnc2[C@H](C)OC)c2c3cc(ccc31)-c1csc(n1)C[C@H](NC(=O)C(F)(F)C1CC1)C(=O)N1CCC[C@H](N1)C(=O)OCC(C)(C)C2 (atropisomer, axis not shown; (Ra)) [Compound Z927]",1.77 nM,3.86 nM,3.89 nM,6.34 nM,,,,
"CCn1c(-c2cc(C#CCN3CCCOCC3)cnc2[C@H](C)OC)c2c3cc(ccc31)-c1csc(n1)C[C@H](NC(=O)C[C@@H]1CC1(F)F)C(=O)N1CCC[C@H](N1)C(=O)OCC(C)(C)C2 (atropisomer, axis not shown; (Ra)) [Compound Z932-1, N-((6^3S,4S,Z)—(Ra)-1′-(5-(3-(1,4-oxazepan-4-yl)prop-1-yn-1-yl)-2-((S)-1-methoxyethyl)pyridin-3-yl)-1^1-ethyl-10,10-dimethyl-5,7-dioxo-6^1,6^2,6^3,6^4,6^5,6^6-hexahydro-1^1H-8-oxa-2(4,2)-thiazola-1(5,3)-indola-6(1,3)-pyridazinacycloundecaphane-4-yl)-2-((R)-2,2-difluorocyclopropyl)acetamide]",1.02 nM,2.25 nM,2.28 nM,3.82 nM,,,,
"CCn1c(-c2cc(C#CCN3CCCOCC3)cnc2[C@H](C)OC)c2c3cc(ccc31)-c1csc(n1)C[C@H](NC(=O)C[C@H]1CC1(F)F)C(=O)N1CCC[C@H](N1)C(=O)OCC(C)(C)C2 (atropisomer, axis not shown; (Ra)) [Compound Z932-2, N-((6^3S,4S,Z)—(Ra)-1^2-(5-(3-(1,4-oxazepan-4-yl)prop-1-yn-1-yl)-2-((S)-1-methoxyethyl)pyridin-3-yl)-1^1-ethyl-10,10-dimethyl-5,7-dioxo-6^1,6^2,6^3,6^4,6^5,6^6-hexahydro-1^1H-8-oxa-2(4,2)-thiazola-1(5,3)-indola-6(1,3)-pyridazinacycloundecaphane-4-yl)-2-((S)-2,2-difluorocyclopropyl)acetamide]",1.16 nM,2.32 nM,2.62 nM,5.52 nM,,,,
"CCn1c(-c2cc(C#CCN3CCCOCC3)cnc2[C@H](C)OC)c2c3cc(ccc31)-c1csc(n1)C[C@H](NC(=O)CC1CC1(F)F)C(=O)N1CCC[C@H](N1)C(=O)OCC(C)(C)C2 (atropisomer, axis not shown; (Ra)) [Compound Z932]",1.22 nM,1.68 nM,2.14 nM,4.14 nM,,,,
"CCn1c(-c2cc(C#CCN3CC(OC)C3)cnc2[C@H](C)OC)c2c3cc(ccc31)-c1csc(n1)C[C@H](NC(=O)[C@H]1[C@H](C)[C@@H]1C)C(=O)N1CCC[C@H](N1)C(=O)OCC(C)(C)C2 (atropisomer, axis not shown; (Ra)) [Compound Z945, (1r,2R,3S)—N-((6^3S,4S,Z)-1^1-ethyl-1^2-(5-(3-(3-methoxyazetidin-1-yl)prop-1-yn-1-yl)-(Ra)-2-((S)-1-methoxyethyl)pyridin-3-yl)-10,10-dimethyl-5,7-dioxo-6^1,6^2,6^3,6^4,6^5,6^6-hexahydro-1^1H-8-oxa-2(4,2)-thiazola-1(5,3)-indola-6(1,3)-pyridazinacycloundecaphane-4-yl)-2,3-dimethylcyclopropane-1-carboxamide]",0.18 nM,0.23 nM,0.28 nM,0.23 nM,,,,
